Experimental data from publication PMC4682109, “The experimental power of FR900359 to study Gq-regulated biological processes” (Nature Communications, 2015).
Read-outs that look alike come from different tables or passages of the source. Starred links: 1 amine or outer side, 2 acyl side, 3 side chain; linkers in the order of their positions; H or OH if unused. Positions of bridges follow the written chain, without caps; N, C: chain ends. Non-standard residues stand in square brackets, D forms with d. Residues, ends and D or L forms follow the SMILES beside them. ξ: configuration not given here. *: point of attachment. Leu(3R-OH,Nα-propionyl) = CCC(=O)N[C@H](C(=O)*)[C@H](O)C(C)C; X1 = CC(C)[C@@H](O[*:3])[C@H](N[*:1])C(=O)[*:2]; NMeT = CN[C@H](C(=O)O)[C@@H](C)O; dPhLac = O=C(O)[C@H](O)Cc1ccccc1; NMeA = CN[C@@H](C)C(=O)O; NMeDha = C=C(NC)C(=O)O; ξNMeA = CNC(C)C(=O)O

Legend:
[1] = test system: HEK293 wild type and HEK293 Gαq/11 knockout cells; experiment: Cell viability (CellTiter-Blue, resazurin) in HEK293 wild type and Gαq/11 knockout cells; format: cell-based; conditions: supramaximal FR concentrations, 24 h
Procedure: (§1) B16 cell viability in the presence of various concentrations of FR was measured using the XTT-based cell proliferation kit II (Fa. Roche) according to the manufacturer's protocols. Viability of HEK293 cell lines was assessed using a fluorimetric detection of resorufin (CellTiter-Blue Cell Viability Assay, Promega). Specifically, Gαq/11 ko-HEK293 and HEK293 cells were seeded at a density of 20,000 and 25,000 cells per well into black 96-well poly-D-lysine-coated plates with clear bottom, respectively. Three hours after seeding cells were treated with 0.3% DMSO or FR dissolved in medium for 24 h. To detect cell viability, CellTiter-Blue reagent was added and cells were incubated for 1 h at 37 °C according to the manufacturer's instructions. Fluorescence (excitation 560 nm, emission 590 nm) was measured using a FlexStation 3 Benchtop Multimode Plate Reader and data were expressed as percentage of cell viability relative to DMSO control.

[2] = test system: HEK293 Gαq/11 knockout cells; experiment: Cell growth and Ki67 staining in HEK293 Gαq/11 knockout cells; format: cell-based; conditions: FR 10 μM
Procedure: For analysis of growth properties of HEK293 cells, 10^5 HEK 293 cells per well were seeded on a 6-well tissue culture plate. After 3 h cells were treated with either 10 μmol FR or 0.1% DMSO. After 72 h cell number was determined by counting in a Neubauer chamber.
Cells grown on coverslips were fixed with 4% paraformaldehyde in PBS and stained with antibodies as follows (in 0.2% Triton X in PBS, supplemented with 5% donkey serum; 2 h at room temperature): Ki67 MIB-1 (1:200, Covance) and vimentin (1:1,000, Chemicon). Primary antibodies were visualized by secondary antibodies conjugated to Cy5 (1:400, Jackson ImmunoResearch) diluted in 1 μg ml^−1 Hoechst 33342 (nuclei staining) at room temperature for 1 h. For documentation an inverted fluorescence microscope (Axiovert 200; Carl Zeiss MicroImaging, Inc.) equipped with a slider module (ApoTome; Carl Zeiss MicroImaging, Inc.), using filters for DAPI, GFP, Cy3 and Cy5, x25, x40 DIC Plan Apochromat oil objectives, an ebx 75 light source and an AxioCam MRm digital camera was used. Pictures were generated with the Axiovision Rel. 4.8 software (Zeiss).

[3] = test system: HEK293 Gαq/11 knockout cells; experiment: Annexin V flow cytometry in HEK293 Gαq/11 knockout cells; format: cell-based; conditions: FR 10 μM, 72 h; representative experiment
Description: For apoptosis analysis of HEK293 cells, cells were stained for Annexin V by use of the Annexin V-FITC Apoptosis Detection Kit (Calbiochem) according to the manufacturer's instructions.

Gq = molecular target: T1, Gq (Cricetulus griseus, UniProt Q3HR10); experiment: IP1 accumulation in M1-CHO cells, carbachol; format: cell-based, Chinese hamster; conditions: carbachol 30 µM, means ± SEM of at least three experiments, read-out: pIC50, IP1 (% of 30 µM carbachol) (converted)
T1 construct: endogenous in cells; host or cells: M1-CHO cells
T1 sequence (Q3HR10 1-359): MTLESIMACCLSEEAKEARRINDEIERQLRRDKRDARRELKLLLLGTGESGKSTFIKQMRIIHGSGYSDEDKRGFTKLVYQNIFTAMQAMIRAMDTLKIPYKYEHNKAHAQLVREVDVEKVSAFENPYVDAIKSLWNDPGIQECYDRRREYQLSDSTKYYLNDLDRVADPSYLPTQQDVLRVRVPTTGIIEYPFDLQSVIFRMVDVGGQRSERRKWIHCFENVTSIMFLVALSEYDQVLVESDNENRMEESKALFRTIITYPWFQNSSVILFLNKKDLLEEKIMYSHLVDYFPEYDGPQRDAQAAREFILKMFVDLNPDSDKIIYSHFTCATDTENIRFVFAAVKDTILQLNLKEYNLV
Procedure: (§2) Quantification of intracellular cAMP and IP1 was performed using the HTRF-cAMP dynamic kit and the HTRF-IP1 kit, respectively, on a Mithras LB 940 reader (Berthold Technologies) according to the manufacturer's instructions. For cAMP assays with M2-CHO cells, the Gi-biased muscarinic agonist iper-6-phth (ref. [30]) was applied.
Supplementary Figure 12: Catalytic hydrogenation of FR to produce “FR-red” and determination of its Gq-inhibitory activity. (a) The exocyclic double bond (yellow box) of FR was hydrogenated by hydrogen gas in the presence of palladium/carbon as a catalyst in a pressure tube in analogy to a procedure published for the hydrogenation of YM2. The structure of the product FR-red was confirmed by high performance liquid chromatography coupled to electrospray ionization mass spectrometry (LCMS) and by 1H- and 13C-NMR spectra. (b) M1-CHO cells were pre-incubated with increasing concentrations of FR or (also on this page, place not known: “FR -red” hydrogen ation YM 2. -red FR a b -8 -7 -6 -5 0 25 50 75 100 FR compound (log M) IP1 (% of 30 µM carbachol) FR FR-red)
(1 picture or pasted object on this page, not shown here)
FR-red and IP1 accumulation was determined in response to carbachol (30 µM). Inhibition of Gq protein […]
± 0.05). Data are means ± SEM of at least three independent experiments each performed in triplicate.

[4] = molecular target: T2, purified recombinant Gαq (GαqΔ34) (Mus musculus, UniProt P21279); experiment: [3H]GDP dissociation from purified Gαq; format: biochemical
T2 construct: first 28 residues of rat Gαi1 (GNAI1, P10824 by own knowledge) (N); TEV-cleavage site (N); made in house; host or cells: insect cells (Sf9), pFastBac1 vector
T2 sequence (P21279 35-359): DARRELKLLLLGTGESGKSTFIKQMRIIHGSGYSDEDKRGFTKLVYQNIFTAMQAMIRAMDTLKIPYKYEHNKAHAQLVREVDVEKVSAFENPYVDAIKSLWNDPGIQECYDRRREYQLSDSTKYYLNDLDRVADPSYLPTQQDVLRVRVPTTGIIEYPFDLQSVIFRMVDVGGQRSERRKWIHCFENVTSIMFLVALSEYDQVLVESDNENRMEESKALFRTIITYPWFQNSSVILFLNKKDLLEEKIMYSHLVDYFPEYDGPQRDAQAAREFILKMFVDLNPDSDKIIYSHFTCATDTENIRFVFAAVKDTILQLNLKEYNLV
Procedure: GαqΔ34 (containing the first 28 residues of rat Gαi1 fused to mouse Gαq lacking the first 34 residues, and with a TEV-cleavage site between the Gαi1 and Gαq sequences) was purified after expression from a pFastBac1 vector in insect cells. Purified GαqΔ34 (∼7 mg ml^−1) was stored at −80 °C in 20 mM HEPES pH 8, 0.2 mM dithiothreitol, 2% (v/v) glycerol, 100 mM NaCl, 0.1 mg ml^−1 PMSF augmented with 10 mM NaF, 30 μM AlCl3, and 5 mM MgCl2.
[^3H]GDP exchange by Gαq was measured based on previous protocols. Briefly, purified GαqΔ34 (100 nM) was incubated with 1 μM [^3H]GDP (42,500 c.p.m. pmol^−1) and 50 mM (NH4)2SO4 for 18 h at 20 °C in assay buffer A (50 mM HEPES pH 7.5, 1 mM EDTA, 0.9 mM MgSO4, 1 mM dithiothreitol, and 0.05% Genapol C-100). Excess [^3H]GDP was removed from Gαq using a ZebaTM spin desalting column following the manufacturer's protocol (Thermo Scientific). Approximately 20% of Gαq incorporated the radiolabelled nucleotide. The reaction mixtures were then mixed with the same volume of assay buffer A in the presence of 0.1–2% dimethylsulphoxide (DMSO), 0–200 nM FR and 1.5 M (NH4)2SO4 to reach final concentrations of […] DMSO, 0–100 nM FR and 750 mM (NH4)2SO4 in the reaction. Dissociation of [^3H]GDP was monitored at 20 °C by stopping the reaction by addition of 4 ml of an ice-cold wash buffer (20 mM Tris pH 8.0, 100 mM NaCl and 2 mM MgSO4). The quenched mixtures were filtered through nitrocellulose membranes, the membranes were washed four times with ice-cold wash buffer, and the filters air-dried for at least 10 min. Radioactivity was quantified by scintillation spectrometry.
Supplementary Table 1: logEC values of the inhibitory effect of FR on [3H]GDP dissociation were
independent of the time point used for quantification.
[3H]GDP binding to purified Gαq proteins was quantified in presence of increasing concentrations of FR
after four different time points (30 min, 60 min, 90 min, 120 min). Data were analyzed by fitting [3H]GDP
binding versus FR concentration to the four parameter logistic function and the logarithm of the half
maximal effective concentrations (logEC50 expressed as means ± SEM from the respective curves in Fig.
7h) for FR-induced inhibition of [3H]GDP dissociation are presented.

B16 cells = experiment: XTT metabolic activity of B16 cells; format: cell-based, mouse; conditions: 72 h of FR treatment
Procedure: as §1

ERK1/2 = experiment: HTRF-based ERK1/2 phosphorylation assay in melanoma cell lines; design: species or system human and mouse; conditions: 1 μM, 1 h
Procedure: Quantification of phosphorylated ERK1/2 levels was performed using the phospho-ERK (Thr202/Tyr204) cellular assay kit (Cisbio). Melanoma cells were seeded into 96-well plates at a density of 25,000 or 50,000 cells per well and cultured overnight. The next day, medium was aspirated and cells were treated with 1 μM FR, 1 μM Trametinib, 1 μM Vemurafenib, or medium for 1 h at 37 °C. Subsequently, medium and inhibitors were removed and 50 μl lysis buffer were added to each well. The plates were incubated for 30 min at room temperature with shaking to lyse the cells and then frozen overnight at −20 °C. Lysates (16 μl) were transferred to a white 384-well plate. Anti-phospho-ERK1/2-d2 (2 μl) and anti-phospho-ERK1/2-Eu3^+-cryptate (2 μl) were added to each well and plates were incubated in the dark for 2 h at room temperature. Time-resolved fluorescence resonance energy transfer (FRET) signals were measured using the Mithras LB 940 multimode reader (Berthold Technologies).

[5] = test system: Gi-sensitive prostaglandin D2 receptor DP2/CRTH2; experiment: cAMP lowering (HTRF), Gi-sensitive CRTH2 in CRTH2-HEK293; format: cell-based; conditions: CRTH2-RLuc-GFP2-β-arrestin2-HEK293, PTX pretreatment
Procedure: as §2

[6] = test system: CRTH2 β-arrestin2 recruitment; experiment: BRET2 β-arrestin2 recruitment to CRTH2; format: cell-based; conditions: CRTH2-RLuc-GFP2-β-arrestin2-HEK293; PTX 16-20 h, FR 30 min
Procedure: For BRET^2 assays on HEK293 cells stably expressing CRTH2-Luc and GFP^2-β-arrestin2, cells were detached and resuspendend in HBSS with 20 mM HEPES at a density of 1.06 × 10^6 cells per ml. Cell suspension (170 μl) was distributed into white 96-well microplates and incubated in the presence of 10 μl buffer or agonist for 5 min before substrate addition. DeepBlueC coelenterazine (Gold Biotechnology, MO, USA; 20 μl per well) was injected by injector 3 to yield a final concentration of 5 μM. To detect BRET, light emissions at 400 and 515 nm were measured sequentially using a Mithras LB 940 instrument. The BRET signal (BRET ratio) was determined by calculating the ratio of the light emitted by the fluorescence acceptor (515 nm) and the light emitted by Rluc (400 nm). The cells were pretreated with PTX for 16–20 h and FR for 30 min.

Molecule: C=C1C(=O)N[C@@H](C)C(=O)N(C)[C@@H](C)C(=O)N[C@@H]([C@H](OC(=O)[C@@H](NC(=O)CC)[C@H](O)C(C)C)C(C)C)C(=O)N(C)[C@@H]([C@@H](C)OC)C(=O)O[C@H](C(C)C)[C@H](NC(C)=O)C(=O)O[C@H](Cc2ccccc2)C(=O)N1C [FR, FR900359] (Ac-[X1][dPhLac][NMeDha]A[NMeA][X1](Leu(3R-OH,Nα-propionyl))[NMeT](Me); ester 1-C)
- cell viability / cellular metabolic homoeostasis [1]: does not disturb cellular metabolic homoeostasis
- percentage of proliferating cells (Ki67) ([2]; 24 h): did not alter
- cell growth ([2]; 72 h): did not alter
- Annexin V [3]: 2.06%
- IC50 (Gq): 263 nM
- EC50 ([4]; [3H]GDP binding to Gαq after 120 min dissociation, 20 °C, read-out: half effective concentration, prevention of [3H]GDP dissociation): 15 nM
- EC50 ([4]; time 30 min, read-out: logEC50, inhibition of [3H]GDP dissociation (converted)): 15.5 nM
- EC50 ([4]; time 60 min, read-out: logEC50, inhibition of [3H]GDP dissociation (converted)): 12.3 nM
- EC50 ([4]; time 90 min, read-out: logEC50, inhibition of [3H]GDP dissociation (converted)): 13.2 nM
- EC50 ([4]; time 120 min, read-out: logEC50, inhibition of [3H]GDP dissociation (converted)): 15.5 nM
- mitochondrial metabolism (XTT) (B16 cells): did not compromise mitochondrial metabolism

Molecule: CCC(=O)N[C@H](C(=O)O[C@H](C(C)C)[C@@H]1NC(=O)[C@H](C)N(C)C(=O)[C@H](C)NC(=O)C(C)N(C)C(=O)[C@@H](Cc2ccccc2)OC(=O)[C@@H](NC(C)=O)[C@@H](C(C)C)OC(=O)[C@H]([C@@H](C)OC)N(C)C1=O)[C@H](O)C(C)C (stereo partly drawn) [FR-red] (Ac-[X1][dPhLac][ξNMeA]A[NMeA][X1](Leu(3R-OH,Nα-propionyl))[NMeT](Me); ester 1-C)
- IC50 (Gq): 891 nM

Molecule: CC(=O)Nc1cccc(-n2c(=O)n(C3CC3)c(=O)c3c(Nc4ccc(I)cc4F)n(C)c(=O)c(C)c32)c1 [Trametinib]
- ERK phosphorylation (ERK1/2): blunted ERK phosphorylation in all cell lines

Molecule: CCCS(=O)(=O)Nc1ccc(F)c(C(=O)c2c[nH]c3ncc(-c4ccc(Cl)cc4)cc23)c1F [Vemurafenib]
- ERK phosphorylation (ERK1/2): inhibited ERK activation only in cell lines harbouring the mutant B-RafV600E allele

Molecule: pertussis toxin [PTX]
- CRTH2-dependent lowering of cAMP [5]: fully prevented
- PGD2-induced β-arrestin recruitment to CRTH2 [6]: without effect
